Experimental data from ChEMBL document CHEMBL4138305, “HTS by NMR for the Identification of Potent and Selective Inhibitors of Metalloenzymes” (ACS Med Chem Lett, 2018).
Activity calls are given as the source filed them. No cut-off for these calls is given here. Square brackets hold non-standard residues; d marks the D form. Peptide text beside a SMILES is read from it. * marks the point of attachment. d(hPhe) = N[C@H](CCc1ccccc1)C(=O)O; Bn = c1ccc(C*)cc1; NHOH = ON*

Tests used:
[1] = molecular target: T1, Macrophage metalloelastase (Homo sapiens, UniProt P39900); assay: Binding affinity to recombinant human MMP12 catalytic domain (Gly106 to […] residues) expressed in Escherichia coli BL21 codon plus by 1D 1H aliphatic NMR spectra analysis
Target sequence in this assay (P39900 whole entry, the tested form may be a part): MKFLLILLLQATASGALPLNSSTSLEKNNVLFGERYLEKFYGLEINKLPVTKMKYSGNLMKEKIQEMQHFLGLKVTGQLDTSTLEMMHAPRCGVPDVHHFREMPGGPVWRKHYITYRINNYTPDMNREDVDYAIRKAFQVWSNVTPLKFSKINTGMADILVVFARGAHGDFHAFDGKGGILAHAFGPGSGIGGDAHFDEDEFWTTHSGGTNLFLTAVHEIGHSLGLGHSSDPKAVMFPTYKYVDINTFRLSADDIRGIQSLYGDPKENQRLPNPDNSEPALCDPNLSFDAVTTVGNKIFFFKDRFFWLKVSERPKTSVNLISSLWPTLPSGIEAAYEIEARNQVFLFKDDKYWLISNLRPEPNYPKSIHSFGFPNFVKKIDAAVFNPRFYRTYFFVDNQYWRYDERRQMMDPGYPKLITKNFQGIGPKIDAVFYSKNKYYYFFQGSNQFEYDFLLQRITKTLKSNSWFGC

[2] = molecular target: T1, Macrophage metalloelastase; assay: Binding affinity to recombinant human MMP12 catalytic domain (Gly106 to […] residues) expressed in Escherichia coli BL21 codon plus by 2D [15N,1H] HMQC spectra analysis
Target sequence in this assay (P39900 whole entry, the tested form may be a part): as above

[3] = molecular target: T1, Macrophage metalloelastase; assay: Inhibition of recombinant human C-terminal DYKDDDDK tagged MMP12 expressed in mammalian expression system at 55 to 100 nM
Target sequence in this assay (P39900 106-470 limits assumed): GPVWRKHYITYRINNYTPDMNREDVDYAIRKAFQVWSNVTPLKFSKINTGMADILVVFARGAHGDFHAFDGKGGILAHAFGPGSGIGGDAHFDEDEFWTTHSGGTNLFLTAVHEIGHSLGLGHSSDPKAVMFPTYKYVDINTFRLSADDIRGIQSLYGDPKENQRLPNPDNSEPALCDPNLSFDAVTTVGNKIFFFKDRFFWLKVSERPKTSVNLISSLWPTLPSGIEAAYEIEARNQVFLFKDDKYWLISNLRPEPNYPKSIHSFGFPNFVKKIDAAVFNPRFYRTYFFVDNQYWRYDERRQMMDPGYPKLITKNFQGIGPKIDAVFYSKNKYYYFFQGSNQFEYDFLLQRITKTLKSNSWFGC

[4] = molecular target: T1, Macrophage metalloelastase; assay: Inhibition of recombinant human MMP12 catalytic domain (Gly106 to […] residues) expressed in Escherichia coli BL21 codon plus using Mca-Pro-Leu-Gly-Leu-Dpa-Ala-Arg-NH2 as substrate by fluorescence assay
Target sequence in this assay (P39900 whole entry, the tested form may be a part): as the sequence (P39900 whole entry, the tested form may be a part) above

[5] = molecular target: Matrix metalloproteinase-14 (Homo sapiens) (UniProt P50281); assay: Inhibition of MMP14 (unknown origin) at 1 uM
[6] = molecular target: Matrix metalloproteinase-9 (Homo sapiens) (UniProt P14780); assay: Inhibition of MMP9 (unknown origin) at 1 uM
[7] = molecular target: Stromelysin-1 (Homo sapiens) (UniProt P08254); assay: Inhibition of recombinant human C-terminal DYKDDDDK tagged MMP3 expressed in mammalian expression system at 55 nM relative to control
[8] = molecular target: T2, Interstitial collagenase (Homo sapiens) (UniProt P03956); assay: Inhibition of MMP1 (unknown origin) at 1 uM
T2 sequence (whole entry): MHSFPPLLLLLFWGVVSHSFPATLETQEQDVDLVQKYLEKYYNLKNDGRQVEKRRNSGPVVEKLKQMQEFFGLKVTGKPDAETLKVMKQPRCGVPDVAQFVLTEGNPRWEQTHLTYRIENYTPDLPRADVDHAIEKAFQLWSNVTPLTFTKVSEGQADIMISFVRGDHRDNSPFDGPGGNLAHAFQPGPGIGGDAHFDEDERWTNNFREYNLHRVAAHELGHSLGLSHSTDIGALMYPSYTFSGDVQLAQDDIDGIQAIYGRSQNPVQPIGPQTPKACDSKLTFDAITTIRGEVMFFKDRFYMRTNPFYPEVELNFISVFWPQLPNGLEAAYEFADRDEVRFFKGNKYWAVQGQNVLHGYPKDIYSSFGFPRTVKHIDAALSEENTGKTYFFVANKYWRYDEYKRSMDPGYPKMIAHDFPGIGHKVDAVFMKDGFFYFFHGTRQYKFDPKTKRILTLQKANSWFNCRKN

[9] = molecular target: Stromelysin-1 (Homo sapiens) (UniProt P08254); assay: Inhibition of recombinant human C-terminal DYKDDDDK tagged MMP3 expressed in mammalian expression system at 1 uM relative to control
[10] = molecular target: T1, Macrophage metalloelastase; settings: 1 uM
Target sequence in this assay (P39900 106-470 limits assumed): as the sequence (P39900 106-470 limits assumed) above

Stromelysin-1 (Homo sapiens), sequence (P08254 100-477 limits assumed): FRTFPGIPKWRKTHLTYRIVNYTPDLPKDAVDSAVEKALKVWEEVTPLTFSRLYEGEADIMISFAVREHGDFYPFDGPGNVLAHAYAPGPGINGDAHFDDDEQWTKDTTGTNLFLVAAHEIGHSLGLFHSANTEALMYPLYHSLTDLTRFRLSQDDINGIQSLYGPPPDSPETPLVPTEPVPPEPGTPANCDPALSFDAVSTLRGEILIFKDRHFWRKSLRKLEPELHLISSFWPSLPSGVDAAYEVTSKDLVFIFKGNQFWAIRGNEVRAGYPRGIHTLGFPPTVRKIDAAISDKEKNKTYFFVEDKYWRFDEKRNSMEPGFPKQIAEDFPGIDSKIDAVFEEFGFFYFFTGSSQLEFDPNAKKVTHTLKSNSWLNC
Matrix metalloproteinase-9 (Homo sapiens), sequence (P14780 whole entry): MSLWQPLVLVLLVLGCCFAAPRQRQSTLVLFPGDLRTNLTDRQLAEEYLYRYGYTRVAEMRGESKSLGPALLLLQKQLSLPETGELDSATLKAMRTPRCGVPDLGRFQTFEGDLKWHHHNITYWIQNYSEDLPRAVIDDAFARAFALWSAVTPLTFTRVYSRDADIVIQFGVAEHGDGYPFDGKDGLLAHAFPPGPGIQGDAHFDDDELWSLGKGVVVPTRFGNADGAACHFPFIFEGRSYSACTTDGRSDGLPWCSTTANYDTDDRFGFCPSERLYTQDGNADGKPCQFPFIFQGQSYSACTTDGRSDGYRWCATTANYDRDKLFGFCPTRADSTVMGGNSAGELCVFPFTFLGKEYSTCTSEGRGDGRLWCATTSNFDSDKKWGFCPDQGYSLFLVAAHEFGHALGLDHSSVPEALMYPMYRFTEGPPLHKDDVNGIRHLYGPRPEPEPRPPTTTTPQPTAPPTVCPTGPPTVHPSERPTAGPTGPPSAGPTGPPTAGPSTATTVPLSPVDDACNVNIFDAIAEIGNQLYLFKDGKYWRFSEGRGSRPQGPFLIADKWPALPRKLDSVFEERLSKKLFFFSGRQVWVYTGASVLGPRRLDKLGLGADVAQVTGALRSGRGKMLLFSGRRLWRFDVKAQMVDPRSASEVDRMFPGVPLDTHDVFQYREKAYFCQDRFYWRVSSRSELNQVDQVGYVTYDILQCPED

For `CC(=O)N[C@@H](COCc1ccccc1)C(=O)N[C@H](CCc1ccccc1)C(=O)N[C@H](Cc1ccccc1)C(=O)NO` (Ac-Ser(Bn)-[d(hPhe)]-[dF]-{NHOH}), the Kd [1] was under 50 nM, the Kd [2] was under 50 nM and the inhibition [3] was “Active”. For the same molecule, the IC50 [4] was 54.7 nM, the inhibition [5] was “Active” and the inhibition [6] was “Active”. The inhibition [7] was 19%, the inhibition [8] was “Active” and the inhibition [9] was 78%.
For `CNC(=O)[C@H](Cc1c[nH]c2ccccc12)NC(=O)[C@@H](CC(=O)NO)CC(C)C` [ILOMASTAT], the inhibition [10] was “Active”, the IC50 [4] was 5.2 nM and the inhibition [5] was “Active”. For the same molecule, the inhibition [6] was “Active”, the inhibition [8] was “Active” and the inhibition [9] was “Active”.
